Earlier results in patent US20100330171A1, “Dietary Supplement for Eye Health” (priority 2008, published 2010).

Legend:
[1] = test system: tube formation; details: Matigel-induced tube formation assay
[2] = molecular target: VEGFR-2 (Homo sapiens, UniProt P35968); details: serum concentrations 0.01-1 microM
[3] = test system: phosophoinositide-dependent protein kinase, Akt, apoptosis signal-regulating kinase, p38; details: fibroblast growth factor-treated HUVEC
[4] = test system: human umbilical vein endothelial cells (HUVEC)
[5] = test system: angiogenesis; details: chick chorioallantoic membrane assay
[6] = molecular target: MMP-9 (Homo sapiens, UniProt P14780)
Sequence of MMP-9 (P14780 94-707, species assumed): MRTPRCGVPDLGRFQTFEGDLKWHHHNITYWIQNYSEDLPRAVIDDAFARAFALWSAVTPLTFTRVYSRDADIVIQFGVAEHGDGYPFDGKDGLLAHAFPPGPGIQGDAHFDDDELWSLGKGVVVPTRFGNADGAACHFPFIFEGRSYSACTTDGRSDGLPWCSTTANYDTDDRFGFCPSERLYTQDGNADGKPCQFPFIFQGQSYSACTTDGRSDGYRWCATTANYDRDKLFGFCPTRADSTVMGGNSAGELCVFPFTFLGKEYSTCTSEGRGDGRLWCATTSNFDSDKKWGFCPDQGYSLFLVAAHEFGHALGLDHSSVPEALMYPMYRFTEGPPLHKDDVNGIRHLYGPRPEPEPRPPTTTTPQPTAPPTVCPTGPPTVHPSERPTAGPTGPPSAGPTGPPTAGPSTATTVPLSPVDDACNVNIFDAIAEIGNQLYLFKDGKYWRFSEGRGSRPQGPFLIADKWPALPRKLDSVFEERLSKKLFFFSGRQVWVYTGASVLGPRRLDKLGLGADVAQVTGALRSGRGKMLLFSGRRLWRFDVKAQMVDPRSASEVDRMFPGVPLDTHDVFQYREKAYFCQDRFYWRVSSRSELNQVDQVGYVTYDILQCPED

[7] = compared with ascorbic acid (vitamin C) and tocopherol (vitamin E)
[8] = test system: human colon cancer cell line; details: by blocking the induction of VEGF
[9] = test system: TNF-alpha
[10] = molecular target: T1, leukocyte elastase (Homo sapiens, UniProt P08246)
T1 sequence (P08246 30-267): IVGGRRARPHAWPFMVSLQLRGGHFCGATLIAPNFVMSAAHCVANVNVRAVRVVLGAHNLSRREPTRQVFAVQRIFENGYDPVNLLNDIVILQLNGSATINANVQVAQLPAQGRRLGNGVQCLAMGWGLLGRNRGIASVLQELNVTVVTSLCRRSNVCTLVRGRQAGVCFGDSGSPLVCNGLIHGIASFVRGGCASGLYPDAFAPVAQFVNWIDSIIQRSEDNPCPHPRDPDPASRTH

[11] = test system: bovine endothelial cells; details: in vitro, bovine endothelial cells stimulated by FGF-2

Sequence of VEGFR-2 (P35968 20-1356, species assumed): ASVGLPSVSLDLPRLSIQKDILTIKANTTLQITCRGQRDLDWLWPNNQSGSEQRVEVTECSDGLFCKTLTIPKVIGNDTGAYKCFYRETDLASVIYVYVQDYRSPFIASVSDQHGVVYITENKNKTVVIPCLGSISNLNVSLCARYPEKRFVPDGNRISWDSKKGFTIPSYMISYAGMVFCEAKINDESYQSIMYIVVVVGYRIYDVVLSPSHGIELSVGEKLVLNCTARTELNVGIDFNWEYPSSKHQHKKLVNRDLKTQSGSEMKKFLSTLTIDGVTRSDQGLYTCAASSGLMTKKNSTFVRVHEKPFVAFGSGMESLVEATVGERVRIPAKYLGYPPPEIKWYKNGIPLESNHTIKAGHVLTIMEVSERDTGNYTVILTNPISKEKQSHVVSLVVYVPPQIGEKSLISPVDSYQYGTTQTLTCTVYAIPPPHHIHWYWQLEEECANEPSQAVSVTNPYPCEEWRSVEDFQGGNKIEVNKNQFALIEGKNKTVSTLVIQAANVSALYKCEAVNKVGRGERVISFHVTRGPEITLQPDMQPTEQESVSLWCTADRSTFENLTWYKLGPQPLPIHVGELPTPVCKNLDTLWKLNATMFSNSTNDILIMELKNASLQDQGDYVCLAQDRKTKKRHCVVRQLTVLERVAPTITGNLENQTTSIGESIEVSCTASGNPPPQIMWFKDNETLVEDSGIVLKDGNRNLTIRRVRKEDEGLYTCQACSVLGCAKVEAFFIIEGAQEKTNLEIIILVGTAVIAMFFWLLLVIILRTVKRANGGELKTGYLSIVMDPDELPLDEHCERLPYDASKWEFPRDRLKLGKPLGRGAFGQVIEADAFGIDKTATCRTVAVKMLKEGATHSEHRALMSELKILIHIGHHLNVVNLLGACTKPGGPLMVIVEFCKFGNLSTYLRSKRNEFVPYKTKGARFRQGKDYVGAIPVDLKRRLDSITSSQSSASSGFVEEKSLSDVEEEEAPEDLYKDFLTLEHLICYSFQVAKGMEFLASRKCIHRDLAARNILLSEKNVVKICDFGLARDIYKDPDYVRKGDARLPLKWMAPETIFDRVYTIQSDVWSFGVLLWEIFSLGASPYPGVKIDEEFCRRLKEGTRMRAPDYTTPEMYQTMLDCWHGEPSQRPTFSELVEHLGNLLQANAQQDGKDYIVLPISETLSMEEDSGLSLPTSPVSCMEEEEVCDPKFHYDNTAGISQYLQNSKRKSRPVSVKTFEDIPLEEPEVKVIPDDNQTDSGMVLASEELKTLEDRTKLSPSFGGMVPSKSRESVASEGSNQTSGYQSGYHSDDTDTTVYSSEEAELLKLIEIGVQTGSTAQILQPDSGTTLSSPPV

Compound	tube formation [1]	inhibition of VEGF-dependent phosphorylation of VEGFR-2 [2]	phosphorylation of apoptosis signal-regulating kinase and p38 [3]	phosphorylation of phosophoinositide-dependent protein kinase and Akt [3]	suppression of fibroblast growth factor-induced proliferation, migration and tube formation [4]	formation of new blood vessels [5]	inhibition of MMP-9 [6]	quenching reactive oxygen species [7]	microvessel density [8]	gene expression of TNF-alpha and the cytokines IL-1 beta and IL-10 induced by TNF-alpha [9]	inhibition of leukocyte elastase [10]	endothelial cell growth [11]
O=C(O[C@@H]1Cc2c(O)cc(O)cc2O[C@H]1c1ccc(O)c(O)c1)c1cc(O)c(O)c(O)c1 [CG, catechin-3 gallate]	almost completely abolished	inhibit	–	–	–	–	–	–	–	–	–	–
CC(C)=CCC/C(C)=C/CC/C(C)=C/CC[C@]1(C)CCc2cc(O)c(C)c(C)c2O1 [γ-tocotrienol]	–	–	increasing	suppressing	highest activity	–	–	–	–	–	–	–
Epigallocatechin-3-gallate [EGCG]	almost completely abolished	inhibit	–	–	–	block	inhibits	more effective	reduces	block	inhibit	suppress
